Data taken from US20170100383A1, “TOPICAL FORMULATIONS FOR PREVENTING SKIN INFECTION” (Practical Solution, Inc., priority 2015, published 2017).
Like-named read-outs stand apart in the source and are kept apart here.

Columns and labels:
Format in all cases: cell-based
Conditions in all cases: 48 h
[1] = tested on: Staphylococcus aureus ATCC6538; assay: Broth microdilution inhibitory rate (MIC assay) against Staphylococcus aureus
Experimental: (§1) Staphyloccocus aureus strain ATCC 6538, Bacillus subtilis ATCC9372 or Candida albicans ATCC10231 each (0.1 ml of a bacterial suspension having 10^8 cfu/ml bacteria) were inoculated into the mixture. […] Test tubes containing the mixtures were placed in a 37° C. incubator and incubated for 48 hours. The concentration of bacterial cells in each test tube was measured. The inhibitory rates were calculated as below:
(§2) [(Positive control average colony count−Test average colony count)/Positive control average colony count]×100%
(§3) Positive controls are the tubes having broth and microorganisms but no antimicrobial agents.

[2] = tested on: Candida albicans ATCC10231; assay: Broth microdilution inhibitory rate (MIC assay) against Candida albicans
Experimental: as §1, §2, §3

[3] = tested on: Bacillus subtilis ATCC9372
Experimental: as §1, §2, §3

[4] = dilution 1* of initial concentration (CHG 5 g/L, CPC 0.5 g/L), 37° C.
[5] = dilution 1/10 of initial concentration (CHG 5 g/L, CPC 0.5 g/L)
[6] = dilution 1/100 of initial concentration (CHG 5 g/L, CPC 0.5 g/L)
[7] = dilution 1/1000 of initial concentration (CHG 5 g/L, CPC 0.5 g/L)
[8] = dilution 1/2000 of initial concentration (CHG 5 g/L, CPC 0.5 g/L)
[9] = dilution 1/4000 of initial concentration (CHG 5 g/L, CPC 0.5 g/L)
[10] = dilution 1/8000 of initial concentration (CHG 5 g/L, CPC 0.5 g/L)

For `N=C(NCCCCCCNC(=N)NC(=N)Nc1ccc(Cl)cc1)NC(=N)Nc1ccc(Cl)cc1.O=C(O)[C@H](O)[C@@H](O)[C@H](O)[C@H](O)CO.O=C(O)[C@H](O)[C@@H](O)[C@H](O)[C@H](O)CO` [CHG, chlorhexidine digluconate], the “Anti-microbial activity (inhibitory rate)” value [1, 4] was 100%, the “Anti-microbial activity (inhibitory rate)” value [1, 5] was 100% and the “Anti-microbial activity (inhibitory rate)” value [1, 6] was 100%. For the same molecule, the “Anti-microbial activity (inhibitory rate)” value [1, 7] was 100%, the “Anti-microbial activity (inhibitory rate)” value [1, 8] was 100% and the “Anti-microbial activity (inhibitory rate)” value [1, 9] was 100%. For the same molecule, the “Anti-microbial activity (inhibitory rate)” value [1, 10] was 78.43%, the “Anti-microbial activity (inhibitory rate)” value [2, 4] was 100% and the “Anti-microbial activity (inhibitory rate)” value [2, 5] was 100%. For the same molecule, the “Anti-microbial activity (inhibitory rate)” value [2, 6] was 100%, the “Anti-microbial activity (inhibitory rate)” value [2, 7] was 97.76% and the “Anti-microbial activity (inhibitory rate)” value [2, 8] was 93.92%. For the same molecule, the “Anti-microbial activity (inhibitory rate)” value [2, 9] was 90.41%, the “Anti-microbial activity (inhibitory rate)” value [3, 4] was 100% and the “Anti-microbial activity (inhibitory rate)” value [3, 5] was 100%. For the same molecule, the “Anti-microbial activity (inhibitory rate)” value [3, 6] was 100%, the “Anti-microbial activity (inhibitory rate)” value [3, 7] was 100% and the “Anti-microbial activity (inhibitory rate)” value [3, 8] was 100%. The “Anti-microbial activity (inhibitory rate)” value [3, 9] was 100%, the “Anti-microbial activity (inhibitory rate)” value [3, 10] was 99.99% and the “Anti-microbial activity (inhibitory rate)” value ([3]; dilution 1/16000 of initial concentration (CHG 5 g/L, CPC 0.5 g/L)) was 99.50%. The “Anti-microbial activity (inhibitory rate)” value ([3]; dilution 1/32000 of initial concentration (CHG 5 g/L, CPC 0.5 g/L)) was 90.83%.
